Measured values from US9340577B2, “HLA binding motifs and peptides and their uses” (priority 1992, dated 2016).
No end group written: not given here.

How the values were obtained:
Assay in all cases: biochemical
A*0202 = A*0202 (Homo sapiens, UniProt P04439, D140Y/D185E/D98H/E176V/E277Q/G131W/G231S/I119L/I121R/I166T/I218V/L180W/L300P/L318F/N151K/N90K/P208A/P217A/Q67R/Q86G/Q94H/R138H/R169H/T345S); assay type: binding
A*0203 = A*0203 (Homo sapiens, UniProt P04439, A173T/D140Y/D185E/D98H/E277Q/G131W/G231S/I119V/I121R/I166T/I218V/L180W/L300P/L318F/N151K/N90K/P208A/P217A/Q86G/Q94H/R138H/R169H/T345S); assay type: binding
A*6802 = A*6802 (Homo sapiens, UniProt P04439, A269V/D140Y/D185E/E176V/E277Q/E87N/F33Y/G231S/I121R/I166T/I218V/L180W/L300P/L318F/N151K/P208A/P217A/Q86R/R138H/R169H/S129P/T345S/V36M); assay type: binding
A*0206 = A*0206 (Homo sapiens, UniProt P04439, D140Y/D185E/D98H/E176V/E277Q/F33Y/G131W/G231S/I119V/I121R/I166T/I218V/L300P/L318F/N151K/N90K/P208A/P217A/Q86G/Q94H/R138H/R169H/T345S); assay type: binding
HLA-A*0201 (HLA-A2.1) = HLA-A*0201 (HLA-A2.1) (Homo sapiens, UniProt P04439, D140Y/D185E/D98H/E176V/E277Q/G131W/G231S/I119V/I121R/I166T/I218V/L300P/L318F/N151K/N90K/P208A/P217A/Q86G/Q94H/R138H/R169H/T345S); assay type: binding
DRB1*1501 = DRB1*1501 (Homo sapiens, UniProt P01903+P01911); assay type: binding
DRB1*0802 = DRB1*0802 (Homo sapiens, UniProt P01903+P01911, A100R/A103L/A169T/F76Y/H45Y/I96F/K41T/L162R/M171V/P40S/Q125H/Q178H/Q39Y/Q99D/R218S/R42G/S66Y/V115G/W38E); assay type: binding
DRB1*1101 = DRB1*1101 (Homo sapiens, UniProt P01903+P01911, A100R/A169T/A87E/I96F/K41T/L162R/M171V/P40S/Q125H/Q178H/Q39Y/Q99D/R42S/S66Y/T262R/V115G/W38E); conditions: Binding affinity DRB1 *1101
DRB1*0901 = DRB1*0901 (Homo sapiens, UniProt P01903+P01911, A100R/A103E/D57H/D86V/F55Y/F60I/F76Y/I96F/K127E/L162R/M171V/P40D/Q125H/Q99R/R33Q/R42F/S133A/S66N/T210M/V115G/W38K/Y107V/Y59G/Y89S); assay type: binding
DRB5*0101 = DRB5*0101 (Homo sapiens, UniProt P01903+Q30154)
DRB4*0101 = DRB4*0101 (Homo sapiens, UniProt P01903+P13762, G164S); assay type: binding
DRB1*1302 = DRB1*1302 (Homo sapiens, UniProt P01903+P01911, A100E/A169T/K41T/L162R/M171V/P40S/Q125H/Q178H/Q39Y/Q99D/R42S/S66N/T262R/V115G/W38E/Y61H); assay type: binding
DR1 (DRB1*0101) = DR1 (DRB1*0101) (Homo sapiens, UniProt P01903+P01911, A100R/D57E/F55L/F60I/F76Y/I96L/L162R/M171V/P40L/Q125E/R42F/V115G/Y59C); assay type: binding
DR4w4 (DRB1*0401) = DR4w4 (DRB1*0401) (Homo sapiens, UniProt P01903+P01911, A100K/A169T/F76Y/I96L/K127E/L162R/M171V/N62H/P40V/Q125Y/R42H/S133A/S149N/S66Y/V115G/V209L/W38E); assay type: binding
DR7 (DRB1*0701) = DR7 (DRB1*0701) (Homo sapiens, UniProt P01903+P01911, A100R/A102G/A103Q/D57E/D86V/E43K/F76Y/K127E/L162R/M171V/P40G/Q125H/Q99D/R33Q/R42Y/R54Q/S133A/S66F/T210M/V115G/Y107V/Y59L/Y89S); assay type: binding

Sequence of DRB1*1101 (P01903 26-254 limits assumed, other chains not shown): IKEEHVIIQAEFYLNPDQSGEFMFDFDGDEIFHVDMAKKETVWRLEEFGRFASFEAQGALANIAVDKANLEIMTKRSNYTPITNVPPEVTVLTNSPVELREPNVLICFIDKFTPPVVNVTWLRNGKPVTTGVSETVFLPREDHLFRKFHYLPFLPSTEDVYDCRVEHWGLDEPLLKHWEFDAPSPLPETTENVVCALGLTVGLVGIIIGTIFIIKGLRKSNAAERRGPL
Sequence of DRB1*1302 (P01903 26-254 limits assumed, other chains not shown): as above

Compound	IC50 (A*0202) [nM]	IC50 (A*6802) [µM]	IC50 (A*0206) [nM]	IC50 (HLA-A*0201 (HLA-A2.1)) [nM]	further results
WLNGQSLPV [Peptide 9013.0090]	8.6	–	–	–	IC50 (A*0203): 6.4 nM
RLENAILFTV [Peptide 1593.60]	24	15.8	–	–	IC50 (A*0203): 160 nM
FLDAFKKFL [Peptide 1578.31]	25	> 20	420	158	–
YTNWKFIYL [Peptide 1578.47]	–	0.146	84	–	–
QQHTQELFV [Peptide 9013.0078]	5290	> 20	–	2480	–
VVWDSIYYI [Peptide 1578.53]	39	0.052	11	13	–
VAWDSVYYM [Peptide 1578.46]	603	5.15	–	–	IC50 (A*0203): 1330 nM
YLLHVIKSDL [Peptide 9013.0152]	22	–	62	86	–
FLGAFKKFL [Peptide 1578.22]	10	> 20	11800	5840	–
TTQDVSLEV [Peptide 1593.54]	2350	0.009	674	1340	–
VLEGKEVLL [Peptide 9013.0019]	18	> 20	> 20000	2910	–
KILQQLLFI [Peptide 1525.21]	–	> 20	51	41	–
LTIESTPFNVV [Peptide 9013.0267]	188	0.123	77	1090	–
IQNDTGFYT [Peptide 9013.0034]	3740	> 20	474	> 20000	–
KLFCADPAL [Peptide 1578.50]	6.8	> 20	–	–	–
LKTIIKPHCMYYHMQ [Peptide 89.0119]	–	–	–	–	IC50 (DRB1*1501): 17.4 µM; IC50 (DRB1*0802): > 20 µM; IC50 (DRB1*1101): > 20 µM; IC50 (DRB1*0901): > 20 µM; IC50 (DRB5*0101): > 20 µM; IC50 (DRB4*0101): 1680 nM; IC50 (DRB1*1302): 104 nM; IC50 (DR1 (DRB1*0101)): > 20 µM; IC50 (DR4w4 (DRB1*0401)): 2000 nM; IC50 (DR7 (DRB1*0701)): > 20 µM
NLAEGKEVLLL [Peptide 9013.0271]	18	> 20	> 20000	7590	–
SLACSWGMVV [Peptide 1578.02]	22	–	–	805	IC50 (A*0203): 8.5 nM
VLFTCEPEA [Peptide 9013.0089]	70	> 20	4570	240	–
RLIIGYVIGT [Peptide 9013.0140]	–	14.6	–	1870	IC50 (A*0203): 636 nM
RLLLTASLLV [Peptide 9013.0117]	123	5.94	–	57	–
ILNDTGFYT [Peptide 9013.0036]	14	> 20	3810	213	–
TTAKLTIESV [Peptide 9013.0125]	4070	0.053	–	> 20000	–
TVQDVSLEV [Peptide 1593.55]	483	0.015	–	–	IC50 (A*0203): 56 nM
IQNIIQNDV [Peptide 9013.0032]	1930	> 20	–	16200	–

Compound	IC50 (A*0202) [nM]	IC50 (A*6802) [µM]	IC50 (A*0206) [nM]	IC50 (HLA-A*0201 (HLA-A2.1)) [nM]	further results
MLGVLVGVALI [Peptide 9013.0349]	432	8.79	4730	4960	–
VQWAYDNEL [Peptide 86.0196]	190	> 20	1100	–	–
VAWDSVYYV [Peptide 1593.57]	35	0.048	3.3	4.4	–
ILQNDTGFYT [Peptide 9013.0147]	187	> 20	11100	902	–
YLHNRLVVFT [Peptide 86.0075]	120	1.6	15200	–	–
KLMSNLLSI [Peptide 1578.21]	2.7	> 20	34	16	–
RMLQQLLFT [Peptide 1525.17]	1870	–	–	–	IC50 (A*0203): 493 nM
VQWAYDNDV [Peptide 86.0190]	89	3.59	428	4430	–
YIDDYLRNL [Peptide 1578.39]	27	> 20	–	–	IC50 (A*0203): 380 nM
GLMIGVLVGVA [Peptide 9013.0345]	39	> 20	3300	2190	–
GLNLSLSCHAA [Peptide 9013.0312]	47	> 20	> 20000	1420	–
STQELFIPNV [Peptide 9013.0181]	2100	0.854	–	5500	–
KLTQLCVTL [Peptide 1537.02]	2.7	> 20	131	24	–
CC[C@H](C)[C@H](NC(=O)[C@@H](NC(=O)[C@@H](NC(=O)[C@@H](NC(=O)[C@@H](NC(=O)[C@@H](NC(=O)[C@@H](N)CCCNC(=N)N)[C@@H](C)O)[C@@H](C)O)C(C)C)[C@@H](C)O)[C@@H](C)O)C(=O)N[C@H](C(=O)N[C@H](C(=O)N[C@@H](Cc1ccc(O)cc1)C(=O)N[C@H](C(=O)O)C(C)C)C(C)C)[C@@H](C)O [Peptide 9013.0304]	9.6	0.00018	73	–	–
LLQQYCLYL [Peptide 1578.01]	11	–	–	224	IC50 (A*0203): 17 nM
YVVWDSIYYI [Peptide 1578.52]	127	–	49	77	–
WLNYTPGPGI [Peptide 73.0129]	–	–	> 20000	–	–
YACFVSNLAV [Peptide 9013.0248]	754	0.095	71	1390	–
ALDGNDISV [Peptide 1578.33]	41	> 20	48	40	–
TQQATPGPV [Peptide 9013.0027]	–	> 20	5870	> 20000	–
GQFRVYPEV [Peptide 9013.0038]	–	> 20	43	–	–
RTLQQLMFI [Peptide 1525.23]	1820	> 20	55	–	–
ELQNTTYLWWV [Peptide 9013.0325]	–	0.157	> 20000	3000	–
RILQQPLFI [Peptide 1545.03]	9910	> 20	872	140	–
